Measurements published in US20250090510A1, “eIF4G1-eIF1 INHIBITORS AND USE THEREOF” (YEDA RESEARCH AND DEVELOPMENT CO. LTD., priority 2022, published 2025).

Key:
[1] = target: T1, eIF4E-eIF4G1 complex (Homo sapiens, UniProt Q04637); assay: Co-immunoprecipitation of endogenous eIF4G1 with HA-eIF4E; type: cell-based; details: ER stress, Thapsigargin 1 μM, 1 hour
T1 construct: co-immunoprecipitation of endogenous eIF4G1 in HEK293T cells expressing HA-eIF1 or HA-eIF4E was performed; endogenous in cells; host or cells: HEK293T (eIF4G1 endogenous; HA-eIF4E transfected)
T1 sequence (Q04637 whole entry): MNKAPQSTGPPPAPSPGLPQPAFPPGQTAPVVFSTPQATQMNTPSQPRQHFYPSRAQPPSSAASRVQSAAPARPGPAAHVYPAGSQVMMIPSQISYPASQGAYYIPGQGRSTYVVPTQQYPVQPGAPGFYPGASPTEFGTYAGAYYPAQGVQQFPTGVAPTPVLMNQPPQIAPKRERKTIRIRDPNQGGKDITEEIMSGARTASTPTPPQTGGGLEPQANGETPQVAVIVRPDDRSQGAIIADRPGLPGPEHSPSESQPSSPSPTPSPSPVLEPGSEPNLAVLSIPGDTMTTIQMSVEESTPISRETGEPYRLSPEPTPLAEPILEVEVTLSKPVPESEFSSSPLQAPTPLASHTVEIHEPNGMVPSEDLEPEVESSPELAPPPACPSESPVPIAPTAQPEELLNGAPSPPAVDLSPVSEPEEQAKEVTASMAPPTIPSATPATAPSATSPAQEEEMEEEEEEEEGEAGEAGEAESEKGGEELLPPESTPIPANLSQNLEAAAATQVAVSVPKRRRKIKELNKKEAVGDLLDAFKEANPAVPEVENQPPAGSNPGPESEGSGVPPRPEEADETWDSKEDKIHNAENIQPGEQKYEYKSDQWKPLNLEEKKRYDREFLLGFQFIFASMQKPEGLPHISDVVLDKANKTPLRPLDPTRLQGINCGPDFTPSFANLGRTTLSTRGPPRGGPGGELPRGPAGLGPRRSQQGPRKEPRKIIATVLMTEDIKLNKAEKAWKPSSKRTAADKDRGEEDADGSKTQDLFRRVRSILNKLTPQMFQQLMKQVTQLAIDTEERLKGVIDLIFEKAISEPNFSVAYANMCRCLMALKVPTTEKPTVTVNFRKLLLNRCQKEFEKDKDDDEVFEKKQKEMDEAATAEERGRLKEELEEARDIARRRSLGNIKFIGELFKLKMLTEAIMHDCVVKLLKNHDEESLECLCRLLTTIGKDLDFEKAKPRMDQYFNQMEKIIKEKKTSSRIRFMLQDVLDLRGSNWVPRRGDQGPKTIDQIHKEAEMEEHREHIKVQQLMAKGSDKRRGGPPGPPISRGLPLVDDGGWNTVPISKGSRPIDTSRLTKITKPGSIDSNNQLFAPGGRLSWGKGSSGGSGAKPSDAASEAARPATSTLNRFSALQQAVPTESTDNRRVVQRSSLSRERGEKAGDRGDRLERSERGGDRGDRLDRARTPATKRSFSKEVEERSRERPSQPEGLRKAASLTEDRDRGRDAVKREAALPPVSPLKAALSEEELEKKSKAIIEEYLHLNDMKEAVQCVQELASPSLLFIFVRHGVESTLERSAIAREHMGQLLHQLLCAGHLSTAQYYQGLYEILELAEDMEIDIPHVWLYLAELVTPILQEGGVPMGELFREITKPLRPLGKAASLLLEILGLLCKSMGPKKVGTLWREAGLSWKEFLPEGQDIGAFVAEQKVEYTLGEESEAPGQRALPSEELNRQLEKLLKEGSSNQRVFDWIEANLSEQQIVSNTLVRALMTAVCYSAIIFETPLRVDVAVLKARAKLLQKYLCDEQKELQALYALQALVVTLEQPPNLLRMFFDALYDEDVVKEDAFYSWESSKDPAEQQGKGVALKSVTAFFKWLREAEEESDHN
T1 sequence (P06730 whole entry partner): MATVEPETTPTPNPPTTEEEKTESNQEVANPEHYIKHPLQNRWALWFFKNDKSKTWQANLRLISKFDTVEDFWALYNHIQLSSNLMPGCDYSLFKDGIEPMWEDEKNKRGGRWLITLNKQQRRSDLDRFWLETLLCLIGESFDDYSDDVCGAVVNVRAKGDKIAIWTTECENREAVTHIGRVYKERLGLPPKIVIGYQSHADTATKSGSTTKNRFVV
Experimental: (§1) FIGS. 2A-C: The effect of i14G1-10 and i14G1-12 on eIF1-eIF4G1 and eIF4E-eIF4G1 complexes. (2A-B) HA-eIF1 and HA-eIF4E were each transfected into HEK293T cells and 48 h after transfection cells were treated with DMSO or i14G1-10 (2A) or i14G1-12 (2B) for 4 h, followed by immunoprecipitation of HA-eIF1 or HA-eIF4E using anti-HA-agarose beads. Western blot was run to check co-immunoprecipitation of endogenous eIF4G1 with HA-eIF1 or HA-eIF4E. The graphs represent the co-immunoprecipitation of eIF4G1 with HA-eIF1 (right) or HA-eIF4E (left). Co—IP data shown as mean±SEM of 4-7 independent experiments. The asterisks denote statistically significant difference compared to DMSO, according to Student's t-tests (one-tailed, paired). *p<0.05. (2C) HEK293T cells were treated with DMSO, i14G1-10, or i14G1-12 for 4 h, followed by cell lysis. Respective cell lysates were incubated with cap analog (γ-Aminohexyl-m7GTP) beads for 2 h to precipitate bound eIF4E. Western blot was performed to check co-precipitation of eIF4G1 along with eIF4E on the cap-analog beads. The graph represents the binding fraction of eIF4G1 and eIF4E to the cap-analog beads (mean±SEM) with DMSO (black), i14G1-10 (blue), and i14G1-12 (red), n=6. The asterisks denote statistically significant difference compared to DMSO, according to Student's t-tests (one-tailed, paired). *p<0.05; **p<0.01.
(§2) Co-immunoprecipitation. HEK293T cells were transfected with 5 μg of HA-eIF1 or HA-eIF4E plasmids along with 10 ng GFP plasmid to check for transfection efficiency using Jetprime reagent as per manufacturer's protocol. After 48 h, HA-eIF1 and HA-eIF4E expressing HEK293T cells were incubated with DMSO, i14G1-10 (20 μM), and […] (10 μM). 4 h later, cells were lysed using IP buffer (20 mM Tris pH8, 125 mM NaCl, 10% glycerol, 50 mM NaF, 1 mM […], 0.5% NP-40, and 0.2 mM EDTA) supplemented with fresh protease inhibitor cocktail (1:100) and PMSF 200 μM (1:100). Protein extract was taken for immunoprecipitation using either monoclonal anti-HA-agarose antibody (Sigma) or control IgG antibody in IP buffer, at 4° C. for 2 hours. […]

[2] = target: T2, eIF1-eIF4G1 complex (Homo sapiens, UniProt Q04637); assay: Co-immunoprecipitation of endogenous eIF4G1 with HA-eIF1; type: cell-based; details: ER stress, Thapsigargin 1 μM, 1 hour
T2 construct: co-immunoprecipitation of endogenous eIF4G1 in HEK293T cells expressing HA-eIF1 or HA-eIF4E was performed; endogenous in cells; host or cells: HEK293T (eIF4G1 endogenous; HA-eIF1 transfected)
T2 sequence (Q04637 whole entry, one chain of several): as the sequence (Q04637 whole entry) above
Experimental: as §1, §2

[3] = system: leaky scanning from cap-proximal AUG in HEK293T cells; assay: Leaky scanning GFP reporter with cap-proximal upstream AUG, western blot; type: cell-based, human; details: upstream AUG with 16 nt 5′UTR
From the text: FIGS. 1A-G: Identification and initial characterization of eIF1-eIF4G1 inhibitors using a high-throughput drug screen (HTS). (1A) A flowchart describing the steps of the recombinant eIF1-eIF4G1 split-RL HTS. (1B) Selection of drugs that inhibit leaky scanning. HEK293T cells were transfected with a short 5′UTR bearing GFP reporter gene described on the top, treated with the indicated HTS hits, and then analyzed by western blot with GFP antibody. US and DS denote upstream and downstream AUG initiation sites, respectively. (1C) A graph showing the change in the ratio of the upstream and downstream AUG following treatment with the indicated drugs. (1D) The chemical structure of the eIF1-eIF4G1 inhibitors, i14G1-10 and i14G1-12. (1E) His-tagged eIF4G1 and His-tagged eIF1 were expressed in BL21 bacteria and purified using nickel NTA beads. Purified His-tagged eIF4G1 and His-tagged eIF1 were incubated with the indicated doses of either i14G1-10 (0-256 μM) or i14G1-12 (0-256 μM) for 5 minutes, followed by fluorescence measurement. For eIF4G1 excitation was at 280 nm and emission was at 350 nm. For eIF1 excitation was at 274 nm and emission was at 304 nm. The data shown represent three independent replicates. IC50 was calculated using Graphpad prism 9. (1F-1G) Western blots of GST pull down. […]
To address the functional significance of the temporal eIF1-eIF4G1 interaction, the inventors set out to develop pharmacological tools against this complex. To this end, the split-Renilla luciferase (RL) complementation assay previously found to be an efficient readout of eIF1 and eIF4G1 interaction in mammalian cells and a highly sensitive and powerful approach for the identification of protein-protein inhibitors was used. […] As knockdown of either eIF1 or eIF4G1 and interference with eIF1-eIF4G1 interaction led to the arrest of leaky scanning from cap-proximal AUG, the selected compounds were analyzed for their effect on initiation from cap-proximal AUG. […]

Compound	level of co-precipitated eIF4G1 with HA-eIF4E [1]	reduction of co-precipitated eIF4G1 with HA-eIF1 [2] [%]	upstream to downstream AUG ratio (leaky scanning) [3]
C/C=C(/C)C(=O)O[C@H]1C(C)=C2[C@H]([C@@H]1OC(=O)CCCCCCC)[C@@](C)(OC(C)=O)C[C@H](OC(=O)CCC)[C@@]1(O)[C@H]2OC(=O)[C@@]1(C)O [Thapsigargin, reference compound]	no significant change	50	–
Cc1ccc(/C(=C\C=C(C#N)C#N)Sc2nc3ccccc3s2)cc1 [i14G1-11]	–	–	selectively changed the upstream to downstream ratio by inhibiting leaky scanning from the cap-proximal AUG
